Measurements as given in US20260217717A1, “CDK2 INHIBITORS” (BLUEPRINT MEDICINES CORPORATION, priority 2023, published 2026).
pIC50: −log10 of the molar value.

What was measured:
[1] = biological target: T1, CDK2/Cyclin E (Homo sapiens, UniProt P24941); assay: CDK2/Cyclin E enzymatic phosphorylation assay (Caliper mobility shift); format: biochemical; settings: read-out: Enzyme CDK2/cyclin E IC50; also: 1.0 mM ATP or ATP Km
T1 construct: purchased Eurofins 14-475
Protocol: (§1) Reactions proceeded until between 10% to 20% total peptides were phosphorylated at room temperature (25° C.) and were terminated with 35 mM 2,2′,2″,2′″-(ethane-1,2-diyldinitrilo)tetraacetic acid (EDTA). Product was detected using the Caliper mobility shift detection method where the phosphorylated peptide (product) and substrate were electrophoretically separated and measured. Percent activity was plotted against log concentration of compound and points to generate an apparent IC50.

[2] = biological target: T2, CDK1/Cyclin B1 (Homo sapiens, UniProt P06493); assay: CDK1/Cyclin B1 enzymatic phosphorylation assay (Caliper mobility shift); format: biochemical; settings: read-out: Enzyme CDK1/cyclin B1 IC50
T2 construct: GST; purchased BPS 40454
Protocol: as §1

T2 sequence (P06493 whole entry): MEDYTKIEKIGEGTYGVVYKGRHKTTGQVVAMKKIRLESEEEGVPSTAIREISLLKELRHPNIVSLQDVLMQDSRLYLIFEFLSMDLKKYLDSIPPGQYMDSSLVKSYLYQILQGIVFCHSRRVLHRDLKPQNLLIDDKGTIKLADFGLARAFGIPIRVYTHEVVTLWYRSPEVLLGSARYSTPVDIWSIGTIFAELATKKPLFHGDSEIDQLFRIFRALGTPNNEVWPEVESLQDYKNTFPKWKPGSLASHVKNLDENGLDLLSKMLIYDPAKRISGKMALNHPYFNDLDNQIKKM
T2 sequence (P14635 whole entry partner): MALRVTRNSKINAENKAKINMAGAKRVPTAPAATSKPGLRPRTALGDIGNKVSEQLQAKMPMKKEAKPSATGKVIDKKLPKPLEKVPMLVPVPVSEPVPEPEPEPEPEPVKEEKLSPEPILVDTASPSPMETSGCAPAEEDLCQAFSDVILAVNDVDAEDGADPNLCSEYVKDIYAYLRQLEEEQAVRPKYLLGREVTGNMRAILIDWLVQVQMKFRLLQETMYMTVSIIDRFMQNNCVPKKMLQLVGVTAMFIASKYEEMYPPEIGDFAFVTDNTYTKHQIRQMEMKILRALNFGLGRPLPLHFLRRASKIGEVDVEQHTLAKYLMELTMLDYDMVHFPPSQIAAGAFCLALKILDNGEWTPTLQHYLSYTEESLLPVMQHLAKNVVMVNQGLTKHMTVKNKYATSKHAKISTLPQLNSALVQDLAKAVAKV

pIC50 [1] | pIC50 [2] | Compound
8.19 | 5.85 | C[C@@H](c1cccnc1)n1ncc2ncc(Nc3cc(C4COC4)[nH]n3)nc21 [Example 33, (S)-N-(5-(oxetan-3-yl)-1H-pyrazol-3-yl)-1-(1-(pyridin-3-yl)ethyl)-1H-pyrazolo[3,4-b]pyrazin-6-amine]
8.07 | 5.99 | c1nc2cnn(C[C@H]3[C@@H]4COC[C@@H]43)c2nc1Nc1cc(C2COC2)[nH]n1 [Example 16, 1-(((1R,5S,6s)-3-oxabicyclo[3.1.0]hexan-6-yl)methyl)-N-(5-(oxetan-3-yl)-1H-pyrazol-3-yl)-1H-pyrazolo[3,4-b]pyrazin-6-amine]
7.83 | 5.63 | CC(=O)N1CCC[C@H](n2ncc3ncc(Nc4cc(C(C)C)[nH]n4)nc32)C1 [Example 59, (S)-1-(3-(6-((5-isopropyl-1H-pyrazolo-3-yl)amino)-1H-pyrazolo[3,4-b]pyrazin-1-yl)piperidin-1-yl)ethan-1-one]
7.83 | 5.78 | Cc1nc2cnn(CC3CCOCC3)c2nc1Nc1cc(C(C)C)[nH]n1 [Example 17, N-(5-isopropyl-1H-pyrazol-3-yl)-5-methyl-1-((tetrahydro-2H-pyran-4-yl)methyl)-1H-pyrazolo[3,4-b]pyrazin-6-amine]
8.46 | 6.29 | O[C@H]1CC[C@H](n2ncc3ncc(Nc4cc(C5COC5)[nH]n4)nc32)CC1 [Example 38, (1r,4r)-4-(6-((5-(oxetan-3-yl)-1H-pyrazol-3-yl)amino)-1H-pyrazolo[3,4-b]pyrazin-1-yl)cyclohexan-1-ol]
9.30 | 7.08 | c1nc2cnn(CC3CCOCC3)c2nc1Nc1cc(C2CC2)[nH]n1 [Example 36, N-(5-cyclopropyl-1H-pyrazol-3-yl)-1-((tetrahydro-2H-pyran-4-yl)methyl)-1H-pyrazolo[3,4-b]pyrazin-6-amine]
7.88 | 5.74 | Fc1ccc(Cn2ncc3ncc(Nc4cc(C5COC5)[nH]n4)nc32)cn1 [Example 48, 1-((6-fluoropyridin-3-yl)methyl)-N-(5-(oxetan-3-yl)-1H-pyrazol-3-yl)-1H-pyrazolo[3,4-b]pyrazin-6-amine]
7.69 | 5.48 | C[C@@H](c1cccnc1Cl)n1ncc2ncc(Nc3cc(C#N)[nH]n3)nc21 [Example 24, (S)-3-((1-(1-(2-chloropyridin-3-yl)ethyl)-1H-pyrazolo[3,4-b]pyrazin-6-yl)amino)-1H-pyrazole-5-carbonitrile]
7.80 | 5.86 | Fc1ccc(Cn2ncc3ncc(Nc4cc(C5COC5)[nH]n4)nc32)cc1 [Example 47, 1-(4-fluorobenzyl)-N-(5-(oxetan-3-yl)-1H-pyrazol-3-yl)-1H-pyrazolo[3,4-b]pyrazin-6-amine]
7.05 | 5.12 | Cc1cc(Nc2cnc3cnn([C@H]4CC[C@H](O)CC4)c3n2)n[nH]1 [Example 39, (1r,4r)-4-(6-((5-methyl-1H-pyrazol-3-yl)amino)-1H-pyrazolo[3,4-b]pyrazin-1-yl)cyclohexan-1-ol]
10.00 | 7.24 | C[C@@H](c1cccnc1)n1ncc2ncc(Nc3cc(C4CC4)[nH]n3)nc21 [Example 31, (S)-N-(5-cyclopropyl-1H-pyrazol-3-yl)-1-(1-(pyridin-3-yl)ethyl)-1H-pyrazolo[3,4-b]pyrazin-6-amine]
8.46 | 6.63 | CC(=O)N1CCC(n2ncc3ncc(Nc4cc(C(C)C)[nH]n4)nc32)CC1 [Example 58, 1-(4-(6-((5-isopropyl-1H-pyrazol-3-yl)amino)-1H-pyrazolo[3,4-b]pyrazin-1-yl)piperidin-1-yl)ethan-1-one]
7.62 | 5.50 | CC[C@H]([C@H](C)O)n1ncc2ncc(Nc3cc(C(C)C)[nH]n3)nc21 (single isomer, unassigned) [Example 14, (2S,3R)-3-(6-((5-isopropyl-1H-pyrazol-3-yl)amino)-1H-pyrazolo[3,4-b]pyrazin-1-yl)pentan-2-ol or (2S,3S)-3-(6-((5-isopropyl-1H-pyrazol-3-yl)amino)-1H-pyrazolo[3,4-b]pyrazin-1-yl)pentan-2-ol]
7.67 | 5.78 | C[C@H](C1CCOCC1)n1ncc2ncc(Nc3cc(C4COC4)[nH]n3)nc21 [Example 43, (R)-N-(5-(oxetan-3-yl)-1H-pyrazol-3-yl)-1-(1-(tetrahydro-2H-pyran-4-yl)ethyl)-1H-pyrazolo[3,4-b]pyrazin-6-amine]
8.10 | 5.80 | CC(C)c1cc(Nc2cnc3cnn(C[C@@H](C)CO)c3n2)n[nH]1 [Example 60, (R)-3-(6-((5-isopropyl-1H-pyrazol-3-yl)amino)-1H-pyrazolo[3,4-b]pyrazin-1-yl)-2-methylpropan-1-ol]
7.73 | 5.65 | c1ccc(Cn2ncc3ncc(Nc4cc(C5COC5)[nH]n4)nc32)cc1 [Example 44, 1-benzyl-N-(5-(oxetan-3-yl)-1H-pyrazol-3-yl)-1H-pyrazolo[3,4-b]pyrazin-6-amine]

pIC50 [1] | pIC50 [2] | Compound
8.35 | 5.86 | Cc1cc(Nc2cnc3cnn([C@@H](C)c4cc(F)ccn4)c3n2)n[nH]1 (single isomer, unassigned) [Example 19, (S)-1-(1-(4-fluoropyridin-2-yl)ethyl)-N-(5-methyl-1H-pyrazol-3-yl)-1H-pyrazolo[3,4-b]pyrazin-6-amine or (R)-1-(1-(4-fluoropyridin-2-yl)ethyl)-N-(5-methyl-1H-pyrazol-3-yl)-1H-pyrazolo[3,4-b]pyrazin-6-amine]
7.95 | 6.06 | c1nc2cnn(CC3CCOCC3)c2nc1Nc1cc(C2COC2)[nH]n1 [Example 35, N-(5-(oxetan-3-yl)-1H-pyrazol-3-yl)-1-((tetrahydro-2H-pyran-4-yl)methyl)-1H-pyrazolo[3,4-b]pyrazin-6-amine]
7.25 | 5.68 | CC(C)c1cc(Nc2cnc3cnn(CC4CCN(C)CC4)c3n2)n[nH]1 [Example 64, N-(5-isopropyl-1H-pyrazol-3-yl)-1-((1-methylpiperidin-4-yl)methyl)-1H-pyrazolo[3,4-b]pyrazin-6-amine]
9.70 | 6.98 | C[C@@H](c1ccccc1F)n1ncc2ncc(Nc3cc(C4COC4)[nH]n3)nc21 [Example 52, (S)-1-(1-(2-fluorophenyl)ethyl)-N-(5-(oxetan-3-yl)-1H-pyrazol-3-yl)-1H-pyrazolo[3,4-b]pyrazin-6-amine]
9.70 | 6.80 | CC(C)c1cc(Nc2cnc3cnn([C@@H](C)c4cccnc4)c3n2)n[nH]1 [Example 29, (S)-N-(5-isopropyl-1H-pyrazol-3-yl)-1-(1-(pyridin-3-yl)ethyl)-1H-pyrazolo[3,4-b]pyrazin-6-amine]
7.44 | 5.30 | Cc1nn(Cc2cccnc2)c2nc(Nc3cc(C4COC4)[nH]n3)cnc12 [Example 4, 3-methyl-N-(5-(oxetan-3-yl)-1H-pyrazol-3-yl)-1-(pyridin-3-ylmethyl)-1H-pyrazolo[3,4-b]pyrazin-6-amine]
8.43 | 6.41 | Cc1nn(CC2CCOCC2)c2nc(Nc3cc(C(C)C)[nH]n3)cnc12 [Example 6, N-(5-isopropyl-1H-pyrazol-3-yl)-3-methyl-1-((tetrahydro-2H-pyran-4-yl)methyl)-1H-pyrazolo[3,4-b]pyrazin-6-amine]
8.64 | 6.23 | C[C@@H](c1ccccc1)n1ncc2ncc(Nc3cc(C4COC4)[nH]n3)nc21 [Example 42, (S)-N-(5-(oxetan-3-yl)-1H-pyrazol-3-yl)-1-(1-phenylethyl)-1H-pyrazolo[3,4-b]pyrazin-6-amine]
8.72 | 6.48 | C[C@@H](c1ccc(F)cc1)n1ncc2ncc(Nc3cc(C4COC4)[nH]n3)nc21 [Example 53, (S)-1-(1-(4-fluorophenyl)ethyl)-N-(5-(oxetan-3-yl)-1H-pyrazol-3-yl)-1H-pyrazolo[3,4-b]pyrazin-6-amine]
8.74 | 6.37 | C[C@@H](c1cccc(F)c1)n1ncc2ncc(Nc3cc(C4COC4)[nH]n3)nc21 [Example 51, (S)-1-(1-(3-fluorophenyl)ethyl)-N-(5-(oxetan-3-yl)-1H-pyrazol-3-yl)-1H-pyrazolo[3,4-b]pyrazin-6-amine]
8.77 | 6.48 | C[C@@H](C1CCOCC1)n1ncc2ncc(Nc3cc(C4COC4)[nH]n3)nc21 [Example 41, (S)-N-(5-(oxetan-3-yl)-1H-pyrazol-3-yl)-1-(1-(tetrahydro-2H-pyran-4-yl)ethyl)-1H-pyrazolo[3,4-b]pyrazin-6-amine]
9.00 | 6.76 | CC(C)c1cc(Nc2cnc3cnn([C@H]4CC[C@H](O)CC4)c3n2)n[nH]1 [Example 57, (1r,4r)-4-(6-((5-isopropyl-1H-pyrazol-3-yl)amino)-1H-pyrazolo[3,4-b]pyrazin-1-yl)cyclohexan-1-ol]
8.72 | 6.33 | CCc1cc(Nc2cnc3cnn([C@@H](C)c4cccnc4)c3n2)n[nH]1 [Example 32, (S)-N-(5-ethyl-1H-pyrazol-3-yl)-1-(1-(pyridin-3-yl)ethyl)-1H-pyrazolo[3,4-b]pyrazin-6-amine]
7.43 | 5.59 | Cc1nn(CC2CCOCC2)c2nc(Nc3cc(C4COC4)[nH]n3)cnc12 [Example 8, 3-methyl-N-(5-(oxetan-3-yl)-1H-pyrazol-3-yl)-1-((tetrahydro-2H-pyran-4-yl)methyl)-1H-pyrazolo[3,4-b]pyrazin-6-amine]
7.80 | 5.71 | CC(C)c1cc(Nc2cnc3cnn(CC4CCNCC4)c3n2)n[nH]1 [Example 62, N-(5-isopropyl-1H-pyrazol-3-yl)-1-(piperidin-4-ylmethyl)-1H-pyrazolo[3,4-b]pyrazin-6-amine]
